Activity and IC50 data for 1 compound are collected here from ChEMBL document CHEMBL4007467, “Effects of 6-paradol, an unsaturated ketone from gingers, on cytochrome P450-mediated drug metabolism” (Bioorg Med Chem Lett, 2017).

Common to all, as to format: ADME
The target in data set [1] is CYP2C19 (Homo sapiens, UniProt P33261). Kind of data set: Inhibition of CYP2C19 in human liver microsomes assessed as enzyme-mediated metabolite formation at 0.3 uM using (S)-mephenytoin as substrate preincubated for 20 mins followed by substrate addition measured after 30 mins in presence of NADPH by LC-MS/MS analysis relative to control. Set-up: scale not given: the % may be the effect or the level left. As to conditions: probe (S)-mephenytoin, read-out: Activity.
Chain of CYP2C19 (P33261 whole entry): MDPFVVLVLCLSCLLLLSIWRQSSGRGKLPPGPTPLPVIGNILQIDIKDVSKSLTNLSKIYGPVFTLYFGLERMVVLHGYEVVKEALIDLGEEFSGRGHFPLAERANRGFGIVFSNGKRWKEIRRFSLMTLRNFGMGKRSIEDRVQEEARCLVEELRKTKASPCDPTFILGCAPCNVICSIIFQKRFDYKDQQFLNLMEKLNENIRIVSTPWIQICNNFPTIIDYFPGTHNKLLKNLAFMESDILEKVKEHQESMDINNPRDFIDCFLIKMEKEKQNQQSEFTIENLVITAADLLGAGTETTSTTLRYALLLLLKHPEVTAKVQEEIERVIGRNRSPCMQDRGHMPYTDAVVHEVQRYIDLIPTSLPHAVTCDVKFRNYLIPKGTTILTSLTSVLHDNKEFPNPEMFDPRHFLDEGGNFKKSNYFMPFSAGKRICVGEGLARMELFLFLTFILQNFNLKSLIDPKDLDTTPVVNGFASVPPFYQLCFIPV

Data set [2] has as its target T1, CYP2C8 (Homo sapiens, UniProt P10632).
T1 sequence (P10632 whole entry): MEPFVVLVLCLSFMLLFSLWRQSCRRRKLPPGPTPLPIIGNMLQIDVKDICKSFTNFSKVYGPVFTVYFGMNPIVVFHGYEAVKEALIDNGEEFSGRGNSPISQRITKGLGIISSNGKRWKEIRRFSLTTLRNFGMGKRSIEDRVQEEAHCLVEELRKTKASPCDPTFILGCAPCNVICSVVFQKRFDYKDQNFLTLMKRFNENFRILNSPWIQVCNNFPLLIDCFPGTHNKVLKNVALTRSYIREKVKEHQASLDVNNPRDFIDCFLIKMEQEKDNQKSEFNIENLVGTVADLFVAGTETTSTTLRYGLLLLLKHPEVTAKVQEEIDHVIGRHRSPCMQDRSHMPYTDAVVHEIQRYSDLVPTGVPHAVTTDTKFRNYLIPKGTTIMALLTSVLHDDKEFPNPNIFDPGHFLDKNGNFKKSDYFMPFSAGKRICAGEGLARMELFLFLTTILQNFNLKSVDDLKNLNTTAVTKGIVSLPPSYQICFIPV
Kind of data set: Inhibition of CYP2C8 in human liver microsomes assessed as enzyme-mediated metabolite formation at 10 uM using paclitaxel as substrate preincubated for 20 mins followed by substrate addition measured after 30 mins in presence of NADPH by LC-MS/MS analysis relative to control. Set-up: scale not given: the % may be the effect or the level left. To be noted: probe paclitaxel, read-out: Activity.

Data set [3] deals with T2, Cytochrome P450 2C8 (Homo sapiens, UniProt P10632).
T2 sequence (P10632 whole entry): T1 sequence (P10632 whole entry)
Nature of the data set: Inhibition of CYP2C8 in human liver microsomes using paclitaxel as substrate preincubated for 20 mins followed by substrate addition measured after 30 mins in presence of NADPH by LC-MS/MS analysis.

As for `CCCCCCCC(=O)CCc1ccc(O)c(OC)c1`, the activity at 0.5 h, 0.3 µM in data set [1] stood at 81.5%. The activity at 0.5 h, 10 µM in data set [2] is 49%. For the same compound, in data set [3], the IC50 is 8.3 µM.
